Assay results as given in ChEMBL document CHEMBL5634124, “Discovery and optimization of indirubin derivatives as novel ferroptosis inducers for the treatment of colon cancer” (Eur J Med Chem, 2023).
Values after ≈ are worked out from the molar mass of the structure shown.

Key:
HCT-116 = test: Cytotoxicity against human HCT-116 cells assessed as inhibition of cell viability incubated for 48 hrs by CCK8 assay; format: functional, cell-based; settings: HCT-116, 48 h
[1] = Kinetic solubility of compound at pH 7.4; format: physicochemical; settings: buffer, read-out: Kinetic_solubility
[2] = Metabolic stability in human liver microsomes assessed as half life at 0.5 uM incubated for 45 mins by LC/MS analysis; format: ADME, Microsome
[3] = Metabolic stability in human liver microsomes assessed as intrinsic clearance at 0.5 uM incubated for 45 mins by LC/MS analysis; format: ADME, Microsome; settings: read-out: CLH
[4] = Metabolic stability in human liver microsomes assessed as hepatic clearance rate at 0.5 uM incubated for 45 mins by LC/MS analysis; format: ADME, Microsome

| Compound | IC50 (HCT-116) [µM] | other results |
| --- | --- | --- |
| O=C(CCl)CCCC(=O)c1ccc2c(c1)C(=O)/C(=C1/C(=O)Nc3ccccc31)N2 | 3.96 | – |
| C#CC(=O)N1CCN(NC(=O)c2ccc3c(c2)C(=O)/C(=C2/C(=O)Nc4ccccc42)N3)CC1 | 3.47 | – |
| O=C(CCl)CCC(=O)c1ccc2c(c1)C(=O)/C(=C1/C(=O)Nc3ccccc31)N2 | > 20 | – |
| C#CC(=O)N1CCC(CCNC(=O)c2ccc3c(c2)C(=O)/C(=C2/C(=O)Nc4ccccc42)N3)CC1 | 1.85 | – |
| O=C1Nc2ccccc2/C1=C1/Nc2ccc(C(=O)N3CCN(C(=O)CCl)CC3)cc2C1=O | 2.31 | – |
| C=CC(=O)CCC(=O)c1ccc2c(c1)C(=O)/C(=C1/C(=O)Nc3ccccc31)N2 | > 20 | – |
| C#CC(=O)CCCCC(=O)c1ccc2c(c1)C(=O)/C(=C1/C(=O)Nc3ccccc31)N2 | 3 | – |
| O=C1Nc2ccccc2/C1=C1/Nc2ccc(C(=O)NCCN3CCN(C(=O)CCl)CC3)cc2C1=O | 2.27 | – |
| C=CC(=O)N1CCN(c2ccc(NC(=O)c3ccc4c(c3)C(=O)/C(=C3/C(=O)Nc5ccccc53)N4)cc2)CC1 | > 20 | – |
| O=C(CCl)CCCCCC(=O)c1ccc2c(c1)C(=O)/C(=C1/C(=O)Nc3ccccc31)N2 | 2.18 | – |
| CC(=O)N1CCC(NC(=O)c2ccc3c(c2)C(=O)/C(=C2/C(=O)Nc4ccccc42)N3)CC1 | 4.05 | – |
| C=CC(=O)N1CCN(CCNC(=O)c2ccc3c(c2)C(=O)/C(=C2/C(=O)Nc4ccccc42)N3)CC1 | 17.5 | – |
| C=CC(=O)N1CCN(NC(=O)c2ccc3c(c2)C(=O)/C(=C2/C(=O)Nc4ccccc42)N3)CC1 | 12.4 | – |
| O=C1Nc2ccccc2/C1=C1/Nc2ccc(C(=O)NC3CCN(C(=O)CCl)CC3)cc2C1=O | 1.81 | – |
| C=CC(=O)CCCC(=O)c1ccc2c(c1)C(=O)/C(=C1/C(=O)Nc3ccccc31)N2 | > 20 | – |
| O=C1Nc2ccccc2/C1=C1/Nc2ccccc2C1=O [INDIRUBIN] | 19.5 | solubility kinetic [1]: 4.01 µg/mL (≈ 15.3 µM); half-life at 0.5 µM [2]: 22.8 min; CLint scaled at 0.5 µM [3]: 70.2 mL/min/kg; CLhep predicted at 0.5 µM [4]: 16 mL/min/kg |
